Reference: paper PMC12393501, “Recruitment of Mre11 to recombination sites during meiosis” (Research Square, 2025)
Ends that are not written are not given here.

What was measured:
pUC19 plasmid = assay: Gel shift assay DNA binding; conditions: 1 nM pUC19, pH 7.5, 100 mM NaCl, 5 mM EDTA, 30°C for 30 mins
Procedure: Proteins were diluted to their appropriate working concentrations in their respective storage buffers. […] Reactions were assembled at 30°C for 30 mins and resolved in a 1% agarose (SeaKem LE Agarose, Lonza) at 60 V for 120 mins at 4°C. Gels were stained with SYBR Gold Nucleic Acid Gel Stain (S11497, Invitrogen) for 40 mins and visualized with Amersham Typhoon biomolecular imager (Cytiva).

Mer2 [1] = assay: Colocalization of Mre11 with Mer2 condensates in vitro; type: binding, Saccharomyces cerevisiae
Procedure: Proteins were diluted to a 10× stock of their appropriate working concentrations in their respective storage buffers. […] Unless specified otherwise, all reactions contained 400 nM ^Alexa488Mre11 or 100 nM ^eGFPMRX. A typical 20 μL binding reaction contained 2 μL protein of 10× stock of indicated concentration, 10 μL of 2× reaction buffer, and 150 ng of supercoiled pUC19 (5.7 nM). Typical reactions were assembled at 30°C for 30 mins with gentle mixing every 5 mins, unless mentioned otherwise. 5 μL was dropped onto a microscope slide and covered with a coverslip. All images were captured on a Zeiss Axio Observer with a 100×/1.4 NA oil immersion objective except for images provided in Figure 4G which were captured on Leica Stellaris DMI 8 confocal microscope with a 63x/1.2 NA water immersion objective. Images were analyzed with ImageJ using a custom-made script. In brief, 129.24 × 129.24-μm (2048 × 2048-pixel) images were thresholded to mean intensity of the background plus three times the standard deviation of the background. Masked foci were counted and the intensity inside the focus mask was integrated. Data points represent averages of at least 8–10 images per sample. Data were analyzed using Graphpad Prism 10.4.0.

pUC19 plasmid DNA [2] = assay: In vitro condensation assay, Mre11; conditions: for Condensate formation: in the presence of plasmid DNA (pUC19), pH 7.5, 120 mM NaCl, 30°C, fluorescence microscopy
Procedure: (§1) Proteins were diluted to a 10× stock of their appropriate working concentrations in their respective storage buffers. Reactions were performed in a buffer containing 25 mM HEPES-HCl (pH 7.5), 2 mM DTT, 1 mg/ml BSA, 5% glycerol, 5 mM MgCl2, 5% PEG-3350, and NaCl. Considering the salt contributed by the protein dilution buffer, final concentration of NaCl in a reaction was adjusted to 120 mM. Unless specified otherwise, all reactions contained 400 nM ^Alexa488Mre11 or 100 nM ^eGFPMRX. A typical 20 μL binding reaction contained 2 μL protein of 10× stock of indicated concentration, 10 μL of 2× reaction buffer, and 150 ng of supercoiled pUC19 (5.7 nM). Typical reactions were assembled at 30°C for 30 mins with gentle mixing every 5 mins, unless mentioned otherwise. 5 μL was dropped onto a microscope slide and covered with a coverslip. All images were captured on a Zeiss Axio Observer with a 100×/1.4 NA oil immersion objective except for images provided in Figure 4G which were captured on Leica Stellaris DMI 8 confocal microscope with a 63x/1.2 NA water immersion objective. Images were analyzed with ImageJ using a custom-made script. In brief, 129.24 × 129.24-μm (2048 × 2048-pixel) images were thresholded to mean intensity of the background plus three times the standard deviation of the background. Masked foci were counted and the intensity inside the focus mask was integrated. Data points represent averages of at least 8–10 images per sample. Data were analyzed using Graphpad Prism 10.4.0.

[3] = tested on: meiotic yeast cells expressing myc-tagged Mre11; assay: Immunofluorescence of Mre11-myc foci, meiotic nuclear spreads; type: cell-based, Saccharomyces cerevisiae; conditions: 5% 1,6-hexanediol, brief exposure, 4 hours after transfer to SPM
Procedure: (§2) Following standard protocols, strains were patched on YPG plates, mated and streaked on YPD plates, and selected diploid colonies grown in liquid YPD at 30°C, 250 rpm, overnight. For meiotic synchronization, diploid cultures grown overnight in YPD were transferred to YPA (1% yeast extract, 2% peptone, 1% potassium acetate) at OD600 0.2 and grown for 12–14 hours at 30°C, 250 rpm. […]
(§3) Slides were blocked with 90% FBS, 1× PBS for 1 hour at room temperature in a humid chamber and then incubated with primary antibody (mouse mAb anti-myc, 1:200 (2276S, Cell Signaling Technology), rabbit anti-phospho H2A-S129, 1:200 (ab15083, abcam)) diluted in 3% BSA, 1× PBS in a humid chamber for 2 hours at 37°C or overnight at 4°C. Slides were washed three times with 1× PBS in a Coplin jar, were incubated with secondary antibody (goat anti-mouse IgG Alexa Fluor™ Plus 488, 1:200 (A32723, Invitrogen), donkey anti-rabbit IgG Alexa Fluor™ 546, 1:200 (A10040, Invitrogen) diluted in 3% BSA, 1× PBS in a humid chamber at 37°C for 1 hour. Slides were washed in the dark three times for 5 mins with 1× PBS, mounted with Vectashield containing DAPI (Vector Labs). Images were captured on a Zeiss Axio Observer with a 100×/1.4 NA oil immersion objective and were analyzed in ImageJ.

[4] = tested on: vegetative yeast cells expressing myc-tagged Mre11; assay: Immunofluorescence of MMS-induced Mre11-myc foci, vegetative nuclear spreads; type: cell-based, Saccharomyces cerevisiae; conditions: 5% 1,6-hexanediol, 4–5 minutes, vegetative spheroplasts
Procedure: as §2, §3

mre11-ΔC49 mutant = assay: MMS and CPT sensitivity assay, mre11-ΔC49; type: cell-based, Saccharomyces cerevisiae; conditions: ten-fold serial dilutions on YPD plates, two days at 30°C
Procedure: (§4) Following standard protocols, strains were patched on YPG plates, mated and streaked on YPD plates, and selected diploid colonies grown in liquid YPD at 30°C, 250 rpm, overnight. For meiotic synchronization, diploid cultures grown overnight in YPD were transferred to YPA (1% yeast extract, 2% peptone, 1% potassium acetate) at OD600 0.2 and grown for 12–14 hours at 30°C, 250 rpm. Once the cultures reached OD600 between 1.2–1.6, cells were washed once with prewarmed sterile water and immediately transferred to sporulation medium supplemented with amino acids (320 μL amino acid complementation media for 100 mL of sporulation media (SPM)) and were kept shaking at 30°C, 250 rpm during the entire meiotic time-course. For MMS and CPT (Sigma) sensitivity assays, serial dilutions of overnight cultures were spotted on freshly prepared YPD-MMS or YPD-CPT plates containing indicated percentage of MMS or CPT, respectively. Plates were grown for two days at 30°C. For immunofluorescence of vegetatively growing cells, overnight cultures were refreshed by diluting to OD600 0.2 and grown for 3–4 hours to reach OD600 1.2–1.4 before subjecting to MMS or MMS followed by 5% 1,6-hexanediol treatment. For 5% 1,6-hexanediol treatment, cells were first converted to spheroplasts and then treated with 5% 1,6-hexanediol for 4–5 minutes. […]

mre11-ΔIDR mutants = assay: MMS and CPT sensitivity assay, mre11-ΔIDR; type: cell-based, Saccharomyces cerevisiae; conditions: ten-fold serial dilutions on YPD plates, two days at 30°C
Procedure: as §4

pUC19 plasmid DNA [5] = assay: In vitro condensation assay, MRX complex
Procedure: as §1

Mer2 [6] = assay: Yeast two-hybrid Mer2-Mre11 interaction; type: binding, Saccharomyces cerevisiae; conditions: SC-Leu-Ura-His + 25 mM 3-AT, 4–5 days at 30°C; at least four independent transformants
Procedure: Bait and prey plasmids were co-transformed into yWL365 using the standard ‘LiAc’-based transformation and plated on SC-Leu-Ura selective media. At least four independent transformants were tested for Mer2-Mre11 interaction by spotting a dilution series on SC-Leu- Ura-His + 25 mM 3-AT (3-amino-1,2,4-triazole) and growing for 4–5 days at 30°C.

Mre11: Alexa488-labeled or eGFP-tagged budding yeast Mre11 nuclease
Species of reduced electrophoretic mobility at higher protein concentration (pUC19 plasmid): formed complexes of reduced mobility at higher protein concentration
Colocalization with Mer2 (Mer2 [1]; 200 nM Alexa594-Mer2 and eGFP-Mre11 assembled separately 10 minutes, then mixed 1:1 for 30 minutes): nearly absolute colocalization
Effect of crowding agents on condensation (pUC19 plasmid DNA [2]; 5% PEG-3350): promoted
Effect of divalent metal ions on condensation (pUC19 plasmid DNA [2]; divalent metal ions): enhanced
Condensate formation (pUC19 plasmid DNA [2]): form large clusters visible by fluorescence microscopy
Concentration above which foci intensity increases steeply (pUC19 plasmid DNA [2]; protein titration, pUC19 DNA): above 200 nM

OCCCCCCO [1,6-hexanediol]
Effect on meiotic Mre11 foci [3]: disassembles these foci
Effect on MMS-induced Mre11 foci [4]: readily dissolved MMS-induced foci, which instead coalesced into a few aggregates of high intensity

C-terminus of Mre11: mScarlet-labelled Mre11-C49 (SYGLLNGRKTKTKTRPAASTKTASRRGKGRASRTPKTDILGSLLAKKRK; also: mScarlet tag; UniProt P32829 644-692, looked up, fragment)
Condensate formation of the C-terminus without Mer2 (Mer2 [1]; 800 nM mScarlet-Mre11-C49, control lacking eGFP-Mer2): does not form condensates independently
Localization in the presence of Mer2 condensates (Mer2 [1]; 800 nM mScarlet-Mre11-C49 and 200 nM eGFP-Mer2, 30 minutes): forms a halo-like structure around Mer2 condensates

CC[C@@]1(O)C(=O)OCc2c1cc1n(c2=O)Cc2cc3ccccc3nc2-1 [CPT, camptothecin]
Sensitivity of mre11-ΔC49 mutant to treatment (mre11-ΔC49 mutant): resistant
Sensitivity of mre11-ΔIDR mutants relative to wild type (mre11-ΔIDR mutants): as resistant to MMS or CPT as wild-type cells

MRX: Mre11-Rad50-Xrs2 complex with an eGFP tag at the N-terminus of Mre11
Effect of crowding agents on condensation (pUC19 plasmid DNA [5]; 5% PEG-3350): promoted
Role of the Mre11 C-terminal extremity in focus formation of MRX (pUC19 plasmid DNA [5]; eGFP-tagged MRX, ΔC49): required for efficient focus formation
Condensate formation (pUC19 plasmid DNA [5]; in the presence of plasmid DNA (pUC19), pH 7.5, 120 mM NaCl, 30°C, fluorescence microscopy): form large clusters visible by fluorescence microscopy

COS(C)(=O)=O [MMS, methylmethanesulfonate]
Sensitivity of mre11-ΔC49 mutant to treatment (mre11-ΔC49 mutant): resistant
Sensitivity of mre11-ΔIDR mutants relative to wild type (mre11-ΔIDR mutants): as resistant to MMS or CPT as wild-type cells

B1: truncation of the terminal 15 amino acids of Mre11: Mre11 lacking the terminal 15 amino acids (pGAD-C1-Mre11-ΔC15) (protein)
chain: MDYPDPDTIRILITTDNHVGYNENDPITGDDSWKTFHEVMMLAKNNNVDMVVQSGDLFHVNKPSKKSLYQVLKTLRLCCMGDKPCELELLSDPSQVFHYDEFTNVNYEDPNFNISIPVFGISGNHDDASGDSLLCPMDILHATGLINHFGKVIESDKIKVVPLLFQKGSTKLALYGLAAVRDERLFRTFKDGGVTFEVPTMREGEWFNLMCVHQNHTGHTNTAFLPEQFLPDFLDMVIWGHEHECIPNLVHNPIKNFDVLQPGSSVATSLCEAEAQPKYVFILDIKYGEAPKMTPIPLETIRTFKMKSISLQDVPHLRPHDKDATSKYLIEQVEEMIRDANEETKQKLADDGEGDMVAELPKPLIRLRVDYSAPSNTQSPIDYQVENPRRFSNRFVGRVANGNNVVQFYKKRSPVTRSKKSGINGTSISDRDVEKLFSESGGELEVQTLVNDLLNKMQLSLLPEVGLNEAVKKFVDKDEKTALKEFISHEISNEVGILSTNEEFLRTDDAEEMKALIKQVKRANSVRPTPPKENDETNFAFNGNGLDSFRSSNREVRTGSPDITQSHVDNESRITHISQAESSKPTSKPKRVRTATKKKIPAFSDSTVISDAENELGDNNDAQDDVDIDENDIIMVSTDEEDASYGLLNGRKTKTKTRPAASTKTASRRGKGRASRT
modifications: left off: Gal4 activation domain (from the vector pGAD-C1), end not stated, kept
Interaction with Mer2 (yeast two-hybrid) (Mer2 [6]): abolished the interaction with Mer2

B2: Mre11^IDR: purified eGFP-tagged Mre11 IDR alone (protein, UniProt P32829 524-677, looked up, fragment)
chain: NSVRPTPPKENDETNFAFNGNGLDSFRSSNREVRTGSPDITQSHVDNESRITHISQAESSKPTSKPKRVRTATKKKIPAFSDSTVISDAENELGDNNDAQDDVDIDENDIIMVSTDEEDASYGLLNGRKTKTKTRPAASTKTASRRGKGRASRT
modifications: IDR eGFP tag
notes: purified eGFP-tagged Mre11 IDR alone
DNA binding compared to the WT or Mre11-ΔIDR (pUC19 plasmid): reduced DNA binding
Condensate formation (pUC19 plasmid DNA [2]): failed to form condensates
